Where “and” joins values, the source holds several entries; their conditions need not be identical. Equal entries are not always repeated.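 In this assay, cells in 96-well plates receive the compound at five concentrations for 48 hours. Endpoints are linearly interpolated between the surrounding concentrations. The concentration for 50% growth inhibition is given as GI50. The concentration for full growth arrest is given as TGI.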

Holding throughout (assay): inhibition of tumour cell growth, NCI panel, 48 h
Assay [1] deals with SK-OV-3 ovarian.
In assay [2] the test system is COLO 205 colon.
For assay [3], the system named is HT29 colon.
The subject of assay [4] is SF-295 CNS.
The subject of assay [5] is SR leukemia.
Assay [6] relates to MDA-MB-231 breast.
Assay [7] concerns HOP-62 NSCLC.
Assay [8] relates to CCRF-CEM leukemia.
Assay [9] deals with BT-549 breast.
In assay [10] the test system is HL-60(TB) leukemia.

Consider `C[C@H]1[C@H](OC(=O)CCC(=O)O)O[C@@H]2O[C@]3(C)CC[C@H]4[C@H](C)CC[C@@H]1[C@@]24OO3`, for which the GI50 in [1] was 16.7 µM; in assay [2] it was 0.341 µM; in assay [3], 0.627 µM; in [4], 0.518 µM; in [5], 0.238 µM; in [6], 2.34 µM. In addition, the GI50 was 3.68 µM in assay [7], 0.452 µM in assay [8], 0.292 µM in [9] and 0.167 µM in [10]. The TGI in [1] is greater than 89 µM; in assay [2] it was 1.37 µM; in assay [3], 16.8 µM; in [4], greater than 67.3 µM; in [5] it was 4.27 µM; in assay [6], 35.4 µM. The TGI in assay [7] stood at 27.3 µM; in assay [8], 19.7 µM; in [9], 4.55 µM; in assay [10], 0.566 µM.
`CC1(C)N=C(N)N=C(N)N1c1cccc(/C=C/C=C/c2cccc([N+](=O)[O-])c2)c1`: the GI50 in assay [1] is 32.1 µM; in assay [2] it was 4.4 µM; in [3], 1.59 µM; in [4], 10.3 µM; in [5] it was 4.71 µM; in assay [6], 10.3 µM. Moreover, the GI50 is 18.1 µM in assay [7], 3.61 µM in [8], 6.91 µM in assay [9] and 2.55 µM in assay [10]. For the same molecule, the TGI was greater than 100 µM in [1]; 19.8 µM in assay [2]; 14.7 µM in assay [3]; 28.3 µM in [4]; 29.2 µM in [5]; 24.4 µM in assay [6]. Also, the TGI in [7] came out at 35.9 µM; in assay [8], 18.9 µM; in assay [9], 23.8 µM; in assay [10], 13 µM.
As to `O=C1CC(=O)N(C2CCCCC2)C(=O)N1c1ccccc1S(=O)(=O)Oc1ccccc1`, the TGI in [1], in assay [2], in [3], in [4], in assay [5] and in [6] was greater than 100 µM each time. In addition, the TGI in assay [7] is greater than 100 µM; in assay [8], 54.5 µM; in assay [9], greater than 100 µM; in [10], greater than 100 µM.
With `COc1cc(CCc2cc(NC(=O)c3ccc(N4C[C@@H](C)N[C@@H](C)C4)cc3)n[nH]2)cc(OC)c1`, the GI50 in assay [1] was 9.23 µM and 7.04 µM; in [2], 3.58 µM and 3.61 µM; in assay [3], 3.86 µM and 3.33 µM; in assay [4], > 10 µM and 6.8 µM; in assay [5], 3.75 µM and 2.34 µM; in assay [6] it was > 10 µM and 5.81 µM. In addition, the GI50 in [7] was > 10 µM and 7.2 µM; in assay [8], > 10 µM and 3.69 µM; in assay [9], 5.58 µM and 1.08 µM; in assay [10], 2.47 µM and 4.15 µM. Also, the TGI in assay [1] was > 10 µM and 19.3 µM; in assay [2] it was > 10 µM and 11.5 µM; in assay [3] it was > 10 µM and 13.3 µM; in [4], > 10 µM and 21.3 µM; in assay [5] it was > 10 µM and 5.42 µM; in [6], > 10 µM and 19.7 µM. In addition, the TGI in [7] is > 10 µM and 20.3 µM; in assay [8] it was > 10 µM and 18.3 µM; in assay [9], > 10 µM and 17.2 µM; in assay [10] it was > 10 µM and 14.9 µM.
As to `CCCCCCCCCCCCCCCCCCNC(=O)[C@H]1CSC(c2ccc(OC)c(F)c2)N1` (stereo not given in full), the GI50 in assay [1] is greater than 42 µM; in assay [2] it was greater than 39.1 µM; in [3] it was 5.05 µM; in assay [4] it was 26 µM; in assay [5], 0.641 µM; in assay [6], 1.9 µM. The GI50 in assay [7] was 2.16 µM; in assay [8] it was 0.731 µM; in assay [9], 1.71 µM; in assay [10], 1.96 µM. In addition, the TGI in [1] is greater than 58 µM; in assay [2], greater than 60.5 µM; in assay [3] it was greater than 41.4 µM; in [4], greater than 52.2 µM; in assay [5], 2.88 µM; in assay [6], 5.16 µM. In addition, the TGI is 5.12 µM in [7], 8.13 µM in assay [8], 4.04 µM in assay [9] and 4.65 µM in [10].
For `COc1cc2c(cc1OC)C(=O)C(Br)CC2` (stereo not given), the GI50 was 4.55 µM in [1]; 2.03 µM in [2]; 3.72 µM in [3]; 14.3 µM in assay [4]; 3.49 µM in assay [5]; 3.56 µM in assay [6]. Besides, the GI50 is 6.09 µM in assay [7], 2.82 µM in assay [8], 2.15 µM in assay [9] and 4.91 µM in assay [10]. For the same molecule, the TGI in assay [1] is 13.7 µM; in assay [2], 3.72 µM; in assay [3], 12.1 µM; in assay [4], 28.4 µM; in assay [5], greater than 100 µM; in assay [6] it was 13.4 µM. Moreover, the TGI was found to be 18.5 µM in assay [7], 11.9 µM in assay [8], 5.85 µM in [9] and 28.9 µM in assay [10].
As for `O=C(CCCc1c[nH]c2ccccc12)NC1CC(=O)c2c(Br)sc(Br)c21` (stereo not given), the GI50 is 22.7 µM in [1]; 19.8 µM in [2]; 7.13 µM in [3]; 22.7 µM in assay [4]; 2.62 µM in [5]; 16.5 µM in assay [6]. The GI50 in [7] was 18.3 µM; in [8], 12.9 µM; in assay [9], 17.4 µM; in assay [10], 5.04 µM. Besides, the TGI in assay [1] is 55.2 µM; in [2], 41.3 µM; in assay [3], 22 µM; in [4], 54.4 µM; in assay [5] it was 6.79 µM; in assay [6], 32.1 µM. Further, the TGI in assay [7] was 33 µM; in assay [8], greater than 100 µM; in assay [9], 37.1 µM; in assay [10], 67.1 µM.
As to `O=C(c1cccs1)c1c(C(F)(F)F)n([O-])c2ccc(C(F)(F)F)cc2[n+]1=O`, the GI50 was 1.24 µM in assay [1]; 0.328 µM in assay [2]; 0.19 µM in assay [3]; 0.464 µM in [4]; 0.301 µM in assay [5]; 0.189 µM in [6]. Further, the GI50 in [7] is 0.298 µM; in assay [8], 0.224 µM; in assay [9] it was 0.178 µM; in [10] it was 0.145 µM. The TGI in assay [1] turned out to be 2.56 µM; in [2] it was 0.909 µM; in assay [3] it was 0.364 µM; in assay [4], 1 µM; in assay [5], 1.28 µM; in [6], 0.357 µM. For the same molecule, the TGI in assay [7] was 0.767 µM; in assay [8], 2.11 µM; in [9], 0.34 µM; in assay [10], 0.526 µM.

The values above are taken from PubChem BioAssay (NCI).
